Patent publication US9611277B2 (Janssen Pharmaceutica NV, priority 2013, dated 2017)

Tests used:
human orexin 1 receptor = human orexin 1 receptor (Homo sapiens, UniProt O43613); assay: Human orexin 1 receptor radioligand binding; details: human orexin 1 receptor; averages of 2-20 runs; read-out: hOX1 Ki
Method: Data are analyzed using pc-Sandy macro and graphed on Graphpad Prism 5. For analysis, each concentration point is averaged from triplicate values and the averaged values are plotted on Graphpad Prism. The IC50 was determined by applying the following equation (GraphPad Prism 5.0, SanDiego) for one site competition where X=log (concentration) and Y=specific binding. Top denotes the total [^3H]-(1-(5-(2-fluoro-phenyl)-2-methyl-thiazol-4-yl)-1-((S)-2-(5-phenyl-(1,3,4)oxadiazol-2-ylmethyl)-pyrrolidin-1-yl)-methanone) binding, bottom denotes the nonspecific [^3H]-(1-(5-(2-fluoro-phenyl)-2-methyl-thiazol-4-yl)-1-((S)-2-(5-phenyl-(1,3,4)oxadiazol-2-ylmethyl)-pyrrolidin-1-yl)-methanone) binding. Graphpad Prism calculates Ki value from IC50 and the pre-determined Kd values for [^3H]-(1-(5-(2-fluoro-phenyl)-2-methyl-thiazol-4-yl)-1-((S)-2-(5-phenyl-(1,3,4)oxadiazol-2-ylmethyl)-pyrrolidin-1-yl)-methanone) and [3H]-EMPA. The Ki for each compound is then uploaded into 3DX. Each run comprises individual compounds in triplicate. The data in Table 1 and Table 2 represent averages from between 2-20 runs
Rat and Human Orexin 1 Receptor Radioligand Binding Studies
After centrifugation (2K×G, 5 min at 4° C.), the supernatant was aspirated and the pellets frozen and stored at −80° C. […] Each cell pellet from a 15 cm plate was resuspended in 10 mL, stored on ice, and homogenized for 45 sec prior to addition to the reactions. […] The final concentration of DMSO in the reactions is equal to or less than 0.1%. Total and nonspecific binding was determined in the absence and presence of 10 μM almorexant. The total volume of each reaction is 200 μL (20 μL of diluted compounds, 80 μL of [^3H]-(1-(5-(2-fluoro-phenyl)-2-methyl-thiazol-4-yl)-1-((S)-2-(5-phenyl-(1,3,4)oxadiazol-2-ylmethyl)-pyrrolidin-1-yl)-methanone) diluted in PBS and 100 μL of the cell suspension). […] The plates were washed 3 times by aspirating 30 ml PBS through the plates. Plates were dried in 55° C. oven for 60 min, scintillation fluid was added, and the radioactivity was counted on a Topcount (Packard).

rat orexin 1 receptor = rat orexin 1 receptor (Rattus norvegicus, UniProt P56718); assay: Rat orexin 1 receptor radioligand binding; details: rat orexin 1 receptor; averages of 2-20 runs; read-out: rOX1 Ki
Procedure, shortened: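 Ki values derive from one-site competition IC50s corrected with the radioligand's predetermined Kd, triplicates per run, averaged over 2-20 runs. Cell homogenates (rat or human OX1R) compete against [^3H]-thiazolyl-oxadiazolyl-pyrrolidine methanone in PBS; 10 μM almorexant sets nonspecific binding; scintillation counting after washing.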

human orexin 2 receptor = human orexin 2 receptor (Homo sapiens (Human), UniProt O43614); assay: Human orexin 2 receptor radioligand binding; details: human orexin 2 receptor; averages of 2-20 runs; read-out: hOX2 Ki
Sequence of human orexin 2 receptor (O43614 whole entry): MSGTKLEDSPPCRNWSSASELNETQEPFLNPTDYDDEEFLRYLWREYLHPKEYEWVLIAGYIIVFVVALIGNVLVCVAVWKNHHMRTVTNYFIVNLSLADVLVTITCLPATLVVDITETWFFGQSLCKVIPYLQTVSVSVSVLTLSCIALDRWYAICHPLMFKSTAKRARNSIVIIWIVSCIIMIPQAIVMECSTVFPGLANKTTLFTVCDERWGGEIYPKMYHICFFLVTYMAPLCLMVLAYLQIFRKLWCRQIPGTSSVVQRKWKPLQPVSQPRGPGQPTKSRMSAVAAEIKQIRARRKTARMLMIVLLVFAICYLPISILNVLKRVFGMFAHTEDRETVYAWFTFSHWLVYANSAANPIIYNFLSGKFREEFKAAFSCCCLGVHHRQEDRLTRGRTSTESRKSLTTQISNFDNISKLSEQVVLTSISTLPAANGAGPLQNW
Procedure, shortened: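 Ki derived from one-site competition IC50 using predetermined Kd of [3H]-EMPA, triplicate points, 2-20 runs averaged. Binding done on homogenized HEK293 cells stably expressing human orexin 2 receptor, DMSO ≤0.1%, with 10 μM almorexant defining nonspecific binding; filtered, washed, scintillation counted.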

| Ki (human orexin 1 receptor) | Ki (rat orexin 1 receptor) | Ki (human orexin 2 receptor) | Structure (SMILES) |
| --- | --- | --- | --- |
| 36 nM | 45 nM | > 10000 nM | Cc1cnc(-n2nccn2)c(C(=O)N2C[C@H]3C[C@@H](Oc4ccc(C(F)(F)F)cn4)[C@@H]2C3)c1 [Example 88, (5-methyl-2-(2H-1,2,3-triazol-2-yl)pyridin-3-yl)((1S,4R,6R)-6-((5-(trifluoromethyl)pyridin-2-yl)oxy)-2-azabicyclo[2.2.1]heptan-2-yl)methanone] |
| 8 nM | 18 nM | 1100 nM | O=C(c1ccccc1-c1ncc(F)cn1)N1C[C@H]2C[C@@H](Oc3ccc(C(F)(F)F)cn3)[C@@H]1C2 [Example 89, (2-(5-fluoropyrimidin-2-yl)phenyl)((1S,4R,6R)-6-((5-(trifluoromethyl)pyridin-2-yl)oxy)-2-azabicyclo[2.2.1]heptan-2-yl)methanone] |
| 19 nM | 15 nM | 2150 nM | O=C(c1cccc(F)c1-c1ncc(F)cn1)N1C[C@H]2C[C@@H](Oc3ccc(C(F)(F)F)cn3)[C@@H]1C2 [Example 90, (3-fluoro-2-(5-fluoropyrimidin-2-yl)phenyl)((1S,4R,6R)-6-((5-(trifluoromethyl)pyridin-2-yl)oxy)-2-azabicyclo[2.2.1]heptan-2-yl)methanone] |
| 6 nM | 8 nM | 331 nM | Cc1cccc(C(=O)N2C[C@H]3C[C@@H](Oc4ccc(C(F)(F)F)cn4)[C@@H]2C3)c1-c1ncc(F)cn1 [Example 91, (2-(5-fluoropyrimidin-2-yl)-3-methylphenyl)((1S,4R,6R)-6-((5-(trifluoromethyl)pyridin-2-yl)oxy)-2-azabicyclo[2.2.1]heptan-2-yl)methanone] |
| 19 nM | 13 nM | 362 nM | Cc1ccc(-c2ncccn2)c(C(=O)N2C[C@H]3C[C@@H](Oc4ccc(C(F)(F)F)cn4)[C@@H]2C3)n1 [Example 92, (6-methyl-3-(pyrimidin-2-yl)pyridin-2-yl)((1S,4R,6R)-6-((5-(trifluoromethyl)pyridin-2-yl)oxy)-2-azabicyclo[2.2.1]heptan-2-yl)methanone] |
| 76 nM | 125 nM | 3100 nM | O=C(c1nccnc1-c1ccccc1)N1C[C@H]2C[C@@H](Oc3ccc(C(F)(F)F)cn3)[C@@H]1C2 [Example 93, (3-phenylpyrazin-2-yl)((1S,4R,6R)-6-((5-(trifluoromethyl)pyridin-2-yl)oxy)-2-azabicyclo[2.2.1]heptan-2-yl)methanone] |
| 30 nM | 35 nM | 848 nM | O=C(c1cccc(F)c1-c1ncccn1)N1C[C@H]2C[C@@H](Oc3cccc(C(F)(F)F)n3)[C@@H]1C2 [Example 94, (3-fluoro-2-(pyrimidin-2-yl)phenyl)((1S,4R,6R)-6-((6-(trifluoromethyl)pyridin-2-yl)oxy)-2-azabicyclo[2.2.1]heptan-2-yl)methanone] |
| 37 nM | 29 nM | 137 nM | O=C(c1cccc(F)c1-c1ncccn1)N1C[C@H]2C[C@@H](Oc3cc(C(F)(F)F)ccn3)[C@@H]1C2 [Example 95, (3-fluoro-2-(pyrimidin-2-yl)phenyl)((1S,4R,6R)-6-((4-(trifluoromethyl)pyridin-2-yl)oxy)-2-azabicyclo[2.2.1]heptan-2-yl)methanone] |
| 15 nM | 21 nM | 1100 nM | O=C(c1ccccc1-n1nccn1)N1C[C@H]2C[C@@H](Oc3ncc(C(F)(F)F)cc3F)[C@@H]1C2 [Example 97, (2-(2H-1,2,3-triazol-2-yl)phenyl)((1S,4R,6R)-6-((3-fluoro-5-(trifluoromethyl)pyridin-2-yl)oxy)-2-azabicyclo[2.2.1]heptan-2-yl)methanone] |
| 28 nM | 37 nM | 1200 nM | Cc1ccc(-n2nccn2)c(C(=O)N2CC3CC(Oc4ncc(C(F)(F)F)cc4F)C2C3)n1 [Example 98, (1S,4R,6R)-6-((3-fluoro-5-(trifluoromethyl)pyridin-2-yl)oxy)-2-azabicyclo[2.2.1]heptan-2-yl)(6-methyl-3-(2H-1,2,3-triazol-2-yl)pyridin-2-yl)methanone] |
| 10 nM | 11 nM | 725 nM | O=C(c1ccccc1-c1ncccn1)N1C[C@H]2C[C@@H](Oc3ncc(C(F)(F)F)cc3F)[C@@H]1C2 [Example 99, ((1S,4R,6R)-6-((3-fluoro-5-(trifluoromethyl)pyridin-2-yl)oxy)-2-azabicyclo[2.2.1]heptan-2-yl)(2-(pyrimidin-2-yl)phenyl)methanone] |
| 12 nM | 13 nM | 1600 nM | O=C(c1cccc(F)c1-c1ncccn1)N1C[C@H]2C[C@@H](Oc3ncc(C(F)(F)F)cc3F)[C@@H]1C2 [Example 100, (3-fluoro-2-(pyrimidin-2-yl)phenyl)((1S,4R,6R)-6-((3-fluoro-5-(trifluoromethyl)pyridin-2-yl)oxy)-2-azabicyclo[2.2.1]heptan-2-yl)methanone] |
| 11 nM | 26 nM | 710 nM | Cc1ccc(O[C@@H]2C[C@H]3C[C@@H]2N(C(=O)c2cccc(F)c2-c2ncccn2)C3)nc1 [Example 101, (3-fluoro-2-(pyrimidin-2-yl)phenyl)((1S,4R,6R)-6-((5-methylpyridin-2-yl)oxy)-2-azabicyclo[2.2.1]heptan-2-yl)methanone] |
| 337 nM | 119 nM | > 10000 nM | Cc1ccc(C(=O)N2C[C@H]3C[C@@H](Oc4ccc(Br)cn4)[C@@H]2C3)c(-n2nccn2)n1 [Example 105, ((1S,4R,6R)-6-((5-bromopyridin-2-yl)oxy)-2-azabicyclo[2.2.1]heptan-2-yl)(6-methyl-2-(2H-1,2,3-triazol-2-yl)pyridin-3-yl)methanone] |
| 4 nM | 3 nM | 436 nM | O=C(c1cccc(F)c1-n1nccn1)N1C[C@H]2C[C@@H](Oc3ccc(Br)cn3)[C@@H]1C2 [Example 106, ((1S,4R,6R)-6-((5-bromopyridin-2-yl)oxy)-2-azabicyclo[2.2.1]heptan-2-yl)(3-fluoro-2-(2H-1,2,3-triazol-2-yl)phenyl)methanone] |
| 26 nM | 16 nM | 1960 nM | O=C(c1ccc(F)cc1-n1nccn1)N1C[C@H]2C[C@@H](Oc3ccc(Br)cn3)[C@@H]1C2 [Example 107, ((1S,4R,6R)-6-((5-bromopyridin-2-yl)oxy)-2-azabicyclo[2.2.1]heptan-2-yl)(4-fluoro-2-(2H-1,2,3-triazol-2-yl)phenyl)methanone] |
| 31 nM | 8 nM | 776 nM | O=C(c1cc(F)ccc1-n1nccn1)N1C[C@H]2C[C@@H](Oc3ccc(Br)cn3)[C@@H]1C2 [Example 108, ((1S,4R,6R)-6-((5-bromopyridin-2-yl)oxy)-2-azabicyclo[2.2.1]heptan-2-yl)(5-fluoro-2-(2H-1,2,3-triazol-2-yl)phenyl)methanone] |
| 5 nM | 6 nM | 442 nM | O=C(c1c(F)cccc1-n1nccn1)N1C[C@H]2C[C@@H](Oc3ccc(Br)cn3)[C@@H]1C2 [Example 109, ((1S,4R,6R)-6-((5-bromopyridin-2-yl)oxy)-2-azabicyclo[2.2.1]heptan-2-yl)(2-fluoro-6-(2H-1,2,3-triazol-2-yl)phenyl)methanone] |
| 11 nM | 6 nM | 1200 nM | O=C(c1ccc(F)cc1-c1ncccn1)N1C[C@H]2C[C@@H](Oc3ccc(Br)cn3)[C@@H]1C2 [Example 110, ((1S,4R,6R)-6-((5-bromopyridin-2-yl)oxy)-2-azabicyclo[2.2.1]heptan-2-yl)(4-fluoro-2-(pyrimidin-2-yl)phenyl)methanone] |
| 5 nM | 5 nM | 458 nM | O=C(c1cc(F)ccc1-c1ncccn1)N1C[C@H]2C[C@@H](Oc3ccc(Br)cn3)[C@@H]1C2 [Example 111, ((1S,4R,6R)-6-((5-bromopyridin-2-yl)oxy)-2-azabicyclo[2.2.1]heptan-2-yl)(5-fluoro-2-(pyrimidin-2-yl)phenyl)methanone] |
